Test results published in PubChem BioAssay AID1918993 (Molecular Pharmacology Branch, DTP, NCI, 2023).
Several values for one entry are separate records, joined by “and”; a condition that tells them apart may be missing. Equal values may be shown once. Values belong to the compound of their own block, whether it stands above or below them.

Tested on: 233499-124-R-J3-PDC complex spheroid growth
Test: Anticancer human tumor 233499-124-R-J3-PDC patient-derived colon adenocarcinoma cell line growth inhibition [AhR]
Settings: for viability, T/C: stronger effect = lower value
Method in brief: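 Spheroids combined tumor cells with HUVEC endothelial cells and human MSCs as stroma. AhR antagonists were paired with standard or investigational drugs, each dosed in half-log steps down from near clinical Cmax, or from 10 microM where Cmax was unknown.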

[1] = curve of first compound, second compound 0.1 µM
[2] = curve of first compound, second compound 0.316 µM
[3] = curve of first compound, second compound 1 µM
[4] = curve of first compound, second compound 3.16 µM
[5] = curve of first compound, second compound 10 µM
[6] = second compound 0.1 µM, first compound 0.0316 µM
[7] = second compound 0.1 µM, first compound 0.1 µM
[8] = second compound 0.1 µM, first compound 0.316 µM
[9] = second compound 0.1 µM, first compound 1 µM
[10] = second compound 0.1 µM, first compound 3.16 µM
[11] = second compound 0.1 µM, first compound 10 µM
[12] = second compound 0.316 µM, first compound 0.0316 µM
[13] = second compound 0.316 µM, first compound 0.1 µM
[14] = second compound 0.316 µM, first compound 0.316 µM
[15] = second compound 0.316 µM, first compound 1 µM
[16] = second compound 0.316 µM, first compound 3.16 µM
[17] = second compound 0.316 µM, first compound 10 µM
[18] = second compound 1 µM, first compound 0.0316 µM
[19] = second compound 1 µM, first compound 0.1 µM
[20] = second compound 1 µM, first compound 0.316 µM
[21] = second compound 1 µM, first compound 1 µM
[22] = second compound 1 µM, first compound 3.16 µM
[23] = second compound 1 µM, first compound 10 µM
[24] = second compound 3.16 µM, first compound 0.0316 µM
[25] = second compound 3.16 µM, first compound 0.1 µM
[26] = second compound 3.16 µM, first compound 0.316 µM
[27] = second compound 3.16 µM, first compound 1 µM
[28] = second compound 3.16 µM, first compound 3.16 µM
[29] = second compound 3.16 µM, first compound 10 µM
[30] = second compound 10 µM, first compound 0.0316 µM
[31] = second compound 10 µM, first compound 0.1 µM
[32] = second compound 10 µM, first compound 0.316 µM
[33] = second compound 10 µM, first compound 1 µM
[34] = second compound 10 µM, first compound 3.16 µM
[35] = second compound 10 µM, first compound 10 µM
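Further: spheroids exposed to agents for seven days before reading.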

IC50 [1]: > 10 µM
IC50 [2]: 8.8 µM
IC50 [3]: > 10 µM
IC50 [4]: > 10 µM
IC50 [5]: > 10 µM
Compound: COc1cccc2c1C(=O)c1c(O)c3c(c(O)c1C2=O)CC(O)(C(=O)CO)CC3OC1CC(N)C(O)C(C)O1 (centres undefined) + Cc1ccccc1N=Nc1ccc(NC(=O)c2ccnn2C)c(C)c1
viability, T/C [6]: 87%
viability, T/C [7]: 92.3%
viability, T/C [8]: 102%
viability, T/C [9]: 91.7%
viability, T/C [10]: 83.3%
viability, T/C [11]: 60.2%
viability, T/C [12]: 80.4%
viability, T/C [13]: 92.6%
viability, T/C [14]: 95.9%
viability, T/C [15]: 85.3%
viability, T/C [16]: 72.2%
viability, T/C [17]: 47.2%
viability, T/C [18]: 97.2%
viability, T/C [19]: 99%
viability, T/C [20]: 102%
viability, T/C [21]: 86.3%
viability, T/C [22]: 81.6%
viability, T/C [23]: 71.9%
viability, T/C [24]: 88.3%
viability, T/C [25]: 92.1%
viability, T/C [26]: 97.7%
viability, T/C [27]: 107%
viability, T/C [28]: 86.8%
viability, T/C [29]: 78%
viability, T/C [30]: 95.2%
viability, T/C [31]: 95.1%
viability, T/C [32]: 94.4%
viability, T/C [33]: 98.7%
viability, T/C [34]: 96%
viability, T/C [35]: 78.7%

IC50 (curve of compound): > 0.3 µM
Compound: Nc1ncn(C2CC(O)C(CO)S2)c(=O)n1 (centres undefined)
viability, T/C (compound 0.000949 µM): 94.5% and 95.6% and 104%
viability, T/C (compound 0.003 µM): 108% and 104% and 118%
viability, T/C (compound 0.00949 µM): 102% and 112% and 110%
viability, T/C (compound 0.03 µM): 107% and 101% and 116%
viability, T/C (compound 0.0949 µM): 103% and 105% and 100%
viability, T/C (compound 0.3 µM): 98.6% and 109% and 104%

IC50 (curve of compound): > 0.1 µM
Compound: CC[C@@]1(O)C(=O)OCc2c1cc1n(c2=O)Cc2cc3c(CN(C)C)c(O)ccc3nc2-1
viability, T/C (compound 0.000316 µM): 104% (2×) and 97.5%
viability, T/C (compound 0.001 µM): 107% and 86.7% and 95.5%
viability, T/C (compound 0.00316 µM): 94.7% and 92% and 87.1%
viability, T/C (compound 0.01 µM): 95% and 99.2% and 93.8%
viability, T/C (compound 0.0316 µM): 86.8% and 86.6% and 108%
viability, T/C (compound 0.1 µM): 92.3% and 83.2% and 89.9%

IC50 [1]: > 10 µM
IC50 [2]: > 10 µM
IC50 [3]: > 10 µM
IC50 [4]: > 10 µM
IC50 [5]: < 0.0316 µM
Compound: COc1cc(Nc2ncc3c(n2)-c2ccc(Cl)cc2C(c2c(F)cccc2OC)=NC3)ccc1C(=O)O + Cc1cncc(-c2nc(NCCc3c[nH]c4ccccc34)c3ncn(C(C)C)c3n2)c1
viability, T/C [6]: 81%
viability, T/C [7]: 71.7%
viability, T/C [8]: 81.5%
viability, T/C [9]: 100%
viability, T/C [10]: 89%
viability, T/C [11]: 84.2%
viability, T/C [12]: 84.8%
viability, T/C [13]: 56.9%
viability, T/C [14]: 83.2%
viability, T/C [15]: 76.9%
viability, T/C [16]: 75.6%
viability, T/C [17]: 82.5%
viability, T/C [18]: 78%
viability, T/C [19]: 68.4%
viability, T/C [20]: 77.8%
viability, T/C [21]: 77.9%
viability, T/C [22]: 70.1%
viability, T/C [23]: 87.6%
viability, T/C [24]: 60.5%
viability, T/C [25]: 50.9%
viability, T/C [26]: 76.8%
viability, T/C [27]: 67.2%
viability, T/C [28]: 58%
viability, T/C [29]: 71.7%
viability, T/C [30]: 8.18%
viability, T/C [31]: 22.4%
viability, T/C [32]: 26.9%
viability, T/C [33]: 10.4%
viability, T/C [34]: 29.2%
viability, T/C [35]: 39.9%
